Broadly, the AC50 is the concentration at which the activity in the assay is half-maximal. A high value points to activity only at high concentration.

A value given as a limit tells only on which side of the number the result lay.

Assay [1] concerns the target T1, Adenosine receptor A3 (Homo sapiens, UniProt P0DMS8).
T1 sequence (P0DMS8 whole entry): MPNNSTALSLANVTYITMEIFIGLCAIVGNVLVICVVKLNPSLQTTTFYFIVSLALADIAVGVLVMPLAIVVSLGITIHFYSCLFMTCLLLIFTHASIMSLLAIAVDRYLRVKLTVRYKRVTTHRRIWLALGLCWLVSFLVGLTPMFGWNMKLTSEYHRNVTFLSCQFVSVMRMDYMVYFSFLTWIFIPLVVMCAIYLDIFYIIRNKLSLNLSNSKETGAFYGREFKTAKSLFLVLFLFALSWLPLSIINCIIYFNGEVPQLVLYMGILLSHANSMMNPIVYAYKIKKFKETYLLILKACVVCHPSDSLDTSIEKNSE

Assay [2] has as its target T2, Alpha-2C adrenergic receptor (Homo sapiens, UniProt P18825).
T2 sequence (P18825 whole entry): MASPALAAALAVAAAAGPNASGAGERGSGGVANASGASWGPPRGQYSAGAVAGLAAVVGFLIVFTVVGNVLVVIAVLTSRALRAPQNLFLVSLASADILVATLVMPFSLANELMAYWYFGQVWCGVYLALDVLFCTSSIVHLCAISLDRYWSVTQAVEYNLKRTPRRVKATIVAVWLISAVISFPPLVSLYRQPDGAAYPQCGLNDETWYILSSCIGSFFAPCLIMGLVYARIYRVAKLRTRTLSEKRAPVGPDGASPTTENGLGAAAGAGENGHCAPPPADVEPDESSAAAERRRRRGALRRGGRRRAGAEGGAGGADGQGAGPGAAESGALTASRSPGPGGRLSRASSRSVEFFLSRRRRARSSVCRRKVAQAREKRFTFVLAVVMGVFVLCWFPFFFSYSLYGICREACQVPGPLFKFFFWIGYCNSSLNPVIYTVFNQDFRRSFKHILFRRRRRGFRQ
It counts as functional.

Assay [3] addresses T3, Type-1 angiotensin II receptor (Homo sapiens, UniProt P30556).
T3 sequence (P30556 whole entry): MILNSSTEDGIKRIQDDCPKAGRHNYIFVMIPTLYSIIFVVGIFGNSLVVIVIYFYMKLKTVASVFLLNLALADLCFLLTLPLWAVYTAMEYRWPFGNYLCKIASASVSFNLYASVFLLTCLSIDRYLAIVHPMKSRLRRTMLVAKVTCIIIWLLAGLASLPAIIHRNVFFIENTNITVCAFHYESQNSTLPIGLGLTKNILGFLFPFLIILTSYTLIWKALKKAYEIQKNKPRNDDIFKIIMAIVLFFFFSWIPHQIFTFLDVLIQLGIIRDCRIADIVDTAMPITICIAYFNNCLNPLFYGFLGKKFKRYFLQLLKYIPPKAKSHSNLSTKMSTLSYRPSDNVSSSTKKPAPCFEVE

The target in assay [4] is Vasopressin V1a receptor (Homo sapiens, UniProt P37288).
Chain of Vasopressin V1a receptor (P37288 whole entry): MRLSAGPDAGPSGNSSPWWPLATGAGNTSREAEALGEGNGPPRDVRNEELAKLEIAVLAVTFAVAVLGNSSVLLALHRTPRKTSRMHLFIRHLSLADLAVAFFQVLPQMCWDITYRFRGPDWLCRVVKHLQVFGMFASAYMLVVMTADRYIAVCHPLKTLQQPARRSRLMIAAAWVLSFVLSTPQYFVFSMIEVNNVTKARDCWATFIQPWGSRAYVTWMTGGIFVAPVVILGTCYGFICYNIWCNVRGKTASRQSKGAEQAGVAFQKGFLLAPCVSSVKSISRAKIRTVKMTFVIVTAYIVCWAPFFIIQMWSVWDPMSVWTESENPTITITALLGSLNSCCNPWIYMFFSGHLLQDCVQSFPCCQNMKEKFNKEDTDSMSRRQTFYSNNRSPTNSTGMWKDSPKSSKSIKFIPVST
Assay [5] deals with Vasopressin V2 receptor (Homo sapiens, UniProt P30518).
Chain of Vasopressin V2 receptor (P30518 whole entry): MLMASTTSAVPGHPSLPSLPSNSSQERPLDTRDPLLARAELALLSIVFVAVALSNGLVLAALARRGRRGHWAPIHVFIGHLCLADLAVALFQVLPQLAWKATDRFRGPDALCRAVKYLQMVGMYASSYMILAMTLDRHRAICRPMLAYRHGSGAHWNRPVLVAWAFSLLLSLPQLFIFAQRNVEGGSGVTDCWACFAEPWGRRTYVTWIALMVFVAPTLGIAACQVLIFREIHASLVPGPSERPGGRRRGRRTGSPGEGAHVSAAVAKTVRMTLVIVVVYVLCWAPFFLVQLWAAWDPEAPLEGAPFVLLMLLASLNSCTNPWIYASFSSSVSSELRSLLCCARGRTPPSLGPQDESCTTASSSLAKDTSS
The target in assay [6] is T4, B2 bradykinin receptor (Homo sapiens, UniProt P30411).
T4 sequence (P30411 whole entry): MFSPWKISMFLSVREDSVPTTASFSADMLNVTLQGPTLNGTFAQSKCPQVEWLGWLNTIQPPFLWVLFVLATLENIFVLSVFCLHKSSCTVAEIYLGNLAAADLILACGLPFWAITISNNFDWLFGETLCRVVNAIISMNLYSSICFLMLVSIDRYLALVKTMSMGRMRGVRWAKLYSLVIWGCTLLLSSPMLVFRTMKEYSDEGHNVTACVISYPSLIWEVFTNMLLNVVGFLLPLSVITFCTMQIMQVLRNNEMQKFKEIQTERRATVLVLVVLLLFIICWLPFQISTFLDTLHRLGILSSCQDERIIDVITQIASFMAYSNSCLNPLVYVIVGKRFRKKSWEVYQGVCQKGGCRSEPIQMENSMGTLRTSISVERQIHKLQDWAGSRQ

The target of assay [7] is T5, Cholecystokinin receptor type A (Homo sapiens, UniProt P32238).
T5 sequence (P32238 whole entry): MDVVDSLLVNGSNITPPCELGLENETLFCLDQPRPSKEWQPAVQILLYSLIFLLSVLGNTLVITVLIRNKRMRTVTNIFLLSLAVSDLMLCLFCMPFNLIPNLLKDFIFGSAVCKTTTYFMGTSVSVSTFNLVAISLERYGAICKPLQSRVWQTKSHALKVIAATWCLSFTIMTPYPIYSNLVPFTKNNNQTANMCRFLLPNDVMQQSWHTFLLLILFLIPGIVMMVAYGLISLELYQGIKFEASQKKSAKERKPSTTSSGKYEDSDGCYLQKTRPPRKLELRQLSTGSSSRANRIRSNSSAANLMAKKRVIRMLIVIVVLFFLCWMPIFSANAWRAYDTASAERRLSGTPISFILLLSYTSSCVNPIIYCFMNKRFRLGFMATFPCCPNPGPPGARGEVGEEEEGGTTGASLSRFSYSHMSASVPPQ

For assay [8], the target named is Cannabinoid receptor 1 (Homo sapiens, UniProt P21554). The class given is functional, cell-based.
Chain of Cannabinoid receptor 1 (P21554 whole entry): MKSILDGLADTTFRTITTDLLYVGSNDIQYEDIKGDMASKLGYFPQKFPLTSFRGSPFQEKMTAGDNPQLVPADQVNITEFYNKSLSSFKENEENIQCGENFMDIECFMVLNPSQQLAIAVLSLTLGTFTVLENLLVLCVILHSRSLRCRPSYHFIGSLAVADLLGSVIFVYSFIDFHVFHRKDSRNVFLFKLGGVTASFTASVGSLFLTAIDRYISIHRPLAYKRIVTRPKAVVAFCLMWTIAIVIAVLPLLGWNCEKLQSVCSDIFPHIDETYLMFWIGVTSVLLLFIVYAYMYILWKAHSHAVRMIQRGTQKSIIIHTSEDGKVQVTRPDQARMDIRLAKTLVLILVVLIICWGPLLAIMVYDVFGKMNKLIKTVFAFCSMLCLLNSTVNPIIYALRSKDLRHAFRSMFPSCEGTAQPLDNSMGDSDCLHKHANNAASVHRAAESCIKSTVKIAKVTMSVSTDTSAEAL
In assay [9] the target is Glutamate receptor ionotropic, NMDA 1 (Rattus norvegicus, UniProt P35439).
Assay [10] deals with Histamine H2 receptor (Homo sapiens, UniProt P25021). It counts as functional, cell-based.
Chain of Histamine H2 receptor (P25021 whole entry): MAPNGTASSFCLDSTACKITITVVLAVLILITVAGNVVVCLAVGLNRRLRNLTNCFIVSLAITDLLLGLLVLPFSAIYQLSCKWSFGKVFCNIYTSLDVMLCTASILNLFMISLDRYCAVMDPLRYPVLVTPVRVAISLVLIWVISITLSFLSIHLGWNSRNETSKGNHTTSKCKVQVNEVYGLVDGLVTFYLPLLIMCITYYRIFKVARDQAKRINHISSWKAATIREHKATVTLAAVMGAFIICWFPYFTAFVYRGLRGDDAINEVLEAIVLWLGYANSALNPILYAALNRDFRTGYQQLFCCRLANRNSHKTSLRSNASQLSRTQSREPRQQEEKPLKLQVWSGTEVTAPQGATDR
The target of assay [11] is T6, Neuropeptide Y receptor type 1 (Homo sapiens, UniProt P25929).
T6 sequence (P25929 whole entry): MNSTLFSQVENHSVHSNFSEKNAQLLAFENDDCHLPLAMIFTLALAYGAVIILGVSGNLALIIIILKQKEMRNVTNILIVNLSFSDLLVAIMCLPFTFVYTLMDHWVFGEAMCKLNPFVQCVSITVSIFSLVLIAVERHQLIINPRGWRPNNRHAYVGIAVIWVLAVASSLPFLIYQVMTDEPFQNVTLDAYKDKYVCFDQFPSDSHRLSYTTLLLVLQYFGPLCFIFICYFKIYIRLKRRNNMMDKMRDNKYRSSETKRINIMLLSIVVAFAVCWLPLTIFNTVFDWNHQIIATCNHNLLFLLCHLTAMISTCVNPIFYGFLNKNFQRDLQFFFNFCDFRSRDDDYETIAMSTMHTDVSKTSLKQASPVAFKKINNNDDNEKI

For assay [12], the target named is 3',5'-cyclic-AMP phosphodiesterase 4D (Homo sapiens, UniProt Q08499). It counts as functional.
Chain of 3',5'-cyclic-AMP phosphodiesterase 4D (Q08499 whole entry): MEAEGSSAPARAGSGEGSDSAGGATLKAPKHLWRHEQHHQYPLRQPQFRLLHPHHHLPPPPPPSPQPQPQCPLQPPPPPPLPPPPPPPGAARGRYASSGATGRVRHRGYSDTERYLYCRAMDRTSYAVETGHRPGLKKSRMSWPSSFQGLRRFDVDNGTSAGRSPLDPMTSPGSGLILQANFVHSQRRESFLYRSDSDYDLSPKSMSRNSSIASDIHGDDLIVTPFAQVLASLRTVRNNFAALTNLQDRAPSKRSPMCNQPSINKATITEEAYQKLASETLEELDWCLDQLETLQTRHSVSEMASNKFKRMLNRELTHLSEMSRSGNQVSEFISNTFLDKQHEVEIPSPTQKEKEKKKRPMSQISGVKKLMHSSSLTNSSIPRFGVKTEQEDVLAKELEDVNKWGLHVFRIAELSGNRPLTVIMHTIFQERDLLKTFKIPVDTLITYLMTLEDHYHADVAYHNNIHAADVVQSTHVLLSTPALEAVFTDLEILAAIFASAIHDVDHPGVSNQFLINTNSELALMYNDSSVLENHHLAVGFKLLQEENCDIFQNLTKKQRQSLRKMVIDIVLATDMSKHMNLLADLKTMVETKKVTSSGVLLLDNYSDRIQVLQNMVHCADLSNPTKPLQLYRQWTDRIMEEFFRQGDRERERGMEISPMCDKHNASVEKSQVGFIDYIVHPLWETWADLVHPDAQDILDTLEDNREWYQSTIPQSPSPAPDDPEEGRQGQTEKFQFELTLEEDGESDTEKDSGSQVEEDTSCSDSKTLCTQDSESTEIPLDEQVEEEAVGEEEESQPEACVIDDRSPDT
Assay [13] has as its target Sodium-dependent noradrenaline transporter (Homo sapiens, UniProt P23975).
Also: assay procedure not described here.

Chain of Sodium-dependent noradrenaline transporter (P23975 whole entry): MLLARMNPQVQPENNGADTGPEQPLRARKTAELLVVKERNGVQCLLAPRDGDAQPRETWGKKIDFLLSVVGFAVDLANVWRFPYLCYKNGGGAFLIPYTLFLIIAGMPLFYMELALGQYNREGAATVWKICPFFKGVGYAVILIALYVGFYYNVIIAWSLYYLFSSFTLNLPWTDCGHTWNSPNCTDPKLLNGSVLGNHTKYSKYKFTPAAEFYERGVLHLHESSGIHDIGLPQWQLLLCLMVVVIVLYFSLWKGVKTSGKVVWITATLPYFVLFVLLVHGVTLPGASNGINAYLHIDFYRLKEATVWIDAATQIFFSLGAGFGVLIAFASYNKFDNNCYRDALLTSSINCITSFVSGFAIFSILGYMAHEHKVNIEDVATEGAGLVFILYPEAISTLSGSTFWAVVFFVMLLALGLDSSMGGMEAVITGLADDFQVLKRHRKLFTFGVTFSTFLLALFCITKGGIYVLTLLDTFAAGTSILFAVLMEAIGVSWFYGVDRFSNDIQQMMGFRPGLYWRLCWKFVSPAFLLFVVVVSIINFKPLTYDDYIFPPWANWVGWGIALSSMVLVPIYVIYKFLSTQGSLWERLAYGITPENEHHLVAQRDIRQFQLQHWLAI

Regarding `C=CCN1C[C@H](C(=O)N(CCCN(C)C)C(=O)NCC)C[C@@H]2c3cccc4[nH]cc(c34)C[C@H]21` [CABERGOLINE], the AC50 is more than 10 µM in [1]; 0.3 µM in [2]; more than 10 µM in [3]; more than 10 µM in assay [4]; more than 10 µM in assay [5]; more than 10 µM in [6]. The AC50 is more than 10 µM in assay [7]; more than 30 µM in assay [8]; more than 10 µM in assay [9]; 4.23 µM in assay [10]; more than 10 µM in assay [11]; more than 30 µM in assay [12]. This compound yielded an AC50 in [13] of 8.7 µM.
Take `CN(C)CCC=C1c2ccccc2C=Cc2ccccc21` [CYCLOBENZAPRINE]: the AC50 in assay [1] is more than 30 µM; in assay [2], 3.9 µM; in assay [3], more than 30 µM; in [4], more than 30 µM; in [5], more than 30 µM; in assay [6], more than 30 µM. Further, the AC50 in [7] was more than 30 µM; in assay [8], more than 30 µM; in [9], more than 10 µM; in assay [10], more than 10 µM; in assay [11] it was more than 30 µM; in assay [12], more than 30 µM. This compound also showed an AC50 in assay [13] of 0.378 µM.
In the case of `CN(C)CC/C=C1\c2ccccc2CSc2ccccc21` [DOTHIEPIN], the AC50 in assay [1] was more than 30 µM; in assay [2], 9.8 µM; in [3] it was more than 30 µM; in assay [4] it was more than 30 µM; in [5], more than 30 µM; in assay [6], more than 30 µM. Besides, the AC50 in assay [7], in assay [8], in assay [9], in assay [10], in assay [11] and in assay [12] was more than 30 µM in each case. In [13], this compound yielded an AC50 of 0.8 µM.
`CC[C@H]1CN2CCc3cc(OC)c(OC)cc3[C@@H]2C[C@@H]1C[C@H]1NCCc2cc(OC)c(OC)cc21` [EMETINE]: the AC50 is more than 30 µM in assay [1]; 0.23 µM in assay [2]; more than 30 µM in [3]; more than 30 µM in assay [4]; more than 30 µM in assay [5]; more than 30 µM in assay [6]. For the same compound, the concentration at half-maximal activity (AC50) in assay [7], in assay [8], in assay [9], in [10], in [11] and in [12] was more than 30 µM in each case. In [13], the AC50 is more than 30 µM.
`COc1ccc(C(=O)Nc2ccccc2CCC2CCCCN2C)cc1` (stereo unspecified) [ENCAINIDE]: the AC50 in [1] was more than 30 µM; in assay [2] it was more than 10 µM; in assay [3] it was more than 30 µM; in assay [4], more than 10 µM; in assay [5], more than 30 µM; in assay [6] it was more than 30 µM. Besides, the half-maximal activity concentration (AC50) is more than 30 µM in [7]; more than 30 µM in [8]; more than 10 µM in assay [9]; more than 10 µM in assay [10]; more than 30 µM in assay [11]; more than 30 µM in assay [12]. This compound had an AC50 in [13] of more than 10 µM.
With `CCOc1ccccc1OCC1CNCCO1` (stereo unspecified) [VILOXAZINE], the AC50 was more than 30 µM in [1]; more than 10 µM in assay [2]; more than 30 µM in assay [3]; more than 10 µM in assay [4]; more than 30 µM in [5]; more than 30 µM in assay [6]. The AC50 was more than 30 µM in assay [7]; more than 30 µM in [8]; more than 10 µM in assay [9]; more than 10 µM in [10]; more than 30 µM in assay [11]; more than 30 µM in assay [12]. The same compound gave a concentration at half-maximal activity (AC50) in assay [13] of 0.97 µM.
Consider `CN(C)CCc1c[nH]c2ccc(C[C@H]3COC(=O)N3)cc12` [ZOLMITRIPTAN], for which the half-maximal activity concentration (AC50) in assay [1], in [2], in assay [3], in [4], in assay [5] and in assay [6] was more than 30 µM throughout. The AC50 in assay [7], in assay [8], in assay [9], in assay [10], in [11] and in assay [12] was more than 30 µM in each case. The AC50 in assay [13] was more than 30 µM.

(Values after ChEMBL document CHEMBL5291721, “A preclinical secondary pharmacology resource illuminates target-adverse drug reaction associations of marketed drugs” (Nat Commun, 2023).)
